Laboratory results published in patent US12721844B2, “Chronic kidney disease treatment or prevention method” (Japan Tobacco Inc., priority 2019, dated 2026).

Columns and labels:
[1] = system: 5/6-kidney-removed rats (male Wistar); experiment: Assessment of renal protective effect 2 (5/6-kidney-removed rats), Test Example 6; type: in vivo, rat; settings: 2 mg/kg/day mixed with feed, vs vehicle-administered group
Method: Assessment of Renal Protective Effect 2
7-Week old male Wistar rats (Japan SLC, Inc.) were treated by removing 2/3 of the left kidney under isoflurane anesthesia and then removing the whole right kidney one week later to prepare 5/6-kidney-removed rats. Compound 1 (2 mg/kg/day) mixed with feed was orally administered to the rats from the age of 9 weeks. As a normal control, male Wistar rats at the same age were set as a sham group. […] For statistical analysis, Student's test was conducted between the vehicle-administered group and the Compound 1-administered group. […] For statistical analysis, Student's test or Aspin-Welch was conducted.

[2] = system: male SDT fatty rats; experiment: Assessment of renal protective effect (GFR in SDT fatty rats), Test Example 5; type: in vivo, rat; settings: 2 mg/kg oral once a day, 16 weeks; vs vehicle group of SDT fatty rats
Method: Assessment of Renal Protective Effect
Vehicle (0.5% methyl cellulose solution), Compound 1 (2 mg/kg), or dapagliflozin (0.3 mg/kg) was orally administered once a day to male SDT fatty rats (7-week old, CLEA Japan, Inc.); and as a normal control, vehicle was orally administered once a day to male SD rats (7-week old, CLEA Japan, Inc.). 16 Weeks after the administration, GFR (mL/min/100 g B.W.) was measured with a transdermal GFR monitor (MediBeacon). For statistical analysis, Student's test was conducted between the vehicle-administered group of SD rats and the vehicle-administered group of SDT fatty rats. Dunnett's multiple test was conducted for the Compound 1 and dapagliflozin groups to the vehicle group of SDT fatty rats. The significance level was two-sided 5%.

[3] = system: glucose-loaded SD rats; experiment: OGTT (Oral Glucose Tolerance Test), Test Example 3; type: in vivo, rat; settings: 3 mg/kg oral, 16 hours before glucose load; compared to vehicle
Method: (§1) OGTT (Oral Glucose Tolerance Test)
Vehicle (0.5% methylcellulose solution), or Compound 1, Compound A, or Compound B (3 mg/kg each) suspended in a 0.5% methylcellulose solution was orally administered in 5 mL/kg to an about 4-hour-fasted male SD rat (8-week old, Nihon Charles River K.K., 5 cases for each group).
Statistical analyses were based on Dunnett's multiple group test. The significance level was two-sided 5%.

[4] = system: glucose-loaded SD rats; experiment: OGTT (Oral Glucose Tolerance Test), Test Example 2; type: in vivo, rat; settings: 1, 3, or 10 mg/kg oral, 16 hours before glucose load; compared to vehicle
Method: as §1
Vehicle (0.5% methylcellulose solution) or Compound 1 (1, 3, or 10 mg/kg) suspended in a 0.5% methylcellulose solution was orally administered in 5 mL/kg to an about 4-hour-fasted male SD rat (8-week old, Nihon Charles River K.K., 6 cases for each group). […] Statistical analyses were based on Steel's multiple test. The significance level was two-sided 5%.

[5] = target: T1, human SGLT1 (Homo sapiens, UniProt P13866); experiment: Assessment of SGLT1 inhibitory activity (14C-AMG uptake in human SGLT1-stably-expressing CHO-K1 cell line); type: cell-based
T1 sequence (P13866 1-664): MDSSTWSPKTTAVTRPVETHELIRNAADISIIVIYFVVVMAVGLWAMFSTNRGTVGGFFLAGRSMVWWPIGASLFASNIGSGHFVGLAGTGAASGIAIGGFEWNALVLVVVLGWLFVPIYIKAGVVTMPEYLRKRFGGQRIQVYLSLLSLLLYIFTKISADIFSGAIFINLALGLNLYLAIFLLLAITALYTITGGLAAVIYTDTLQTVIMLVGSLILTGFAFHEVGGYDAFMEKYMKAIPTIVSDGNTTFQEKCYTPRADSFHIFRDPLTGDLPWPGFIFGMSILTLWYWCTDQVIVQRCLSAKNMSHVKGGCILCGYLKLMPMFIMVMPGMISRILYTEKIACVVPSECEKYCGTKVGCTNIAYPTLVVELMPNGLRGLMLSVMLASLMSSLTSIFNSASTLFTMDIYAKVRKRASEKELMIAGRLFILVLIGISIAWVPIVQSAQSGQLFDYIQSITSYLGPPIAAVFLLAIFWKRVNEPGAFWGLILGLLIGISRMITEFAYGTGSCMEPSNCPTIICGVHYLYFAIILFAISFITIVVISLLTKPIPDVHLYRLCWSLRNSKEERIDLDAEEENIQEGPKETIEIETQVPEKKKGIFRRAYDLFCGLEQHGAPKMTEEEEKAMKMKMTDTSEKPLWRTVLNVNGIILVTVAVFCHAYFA
Method: Assessment of SGLT1 Inhibitory Activity
SGLT1 inhibitory activities of test compounds (IC50 values) were calculated based on the amount of intracellular uptake of labelled […] (^14C-AMG) transported by SGLT1.
1) Formation of Human SGLT1-Expressing Plasmid
A DNA fragment containing human SGLT1 was amplified by PCR (Polymerase Chain Reaction) using pCMV6-hSGLT1 (OriGene) as a template. In the human SGLT1, NheI recognition and cleavage sequence was added to the upstream of Kozac consensus sequence derived from a vector, and a stop codon, TAG, and SalI recognition and cleavage sequence were added to the immediate downstream of the protein-translating region of human SGLT1. […]
Human SGLT1-stably-expressing cell lines were seeded at 5×10^4 cells/well on BioCoat™ Poly-D-Lysine 96 well plate with Lid (Becton, Dickinson and Company) and cultured at 37° C. under 5% CO2 overnight. […] In the assessment for the uptake ability of ^14C-AMG, the total amount of the cell lysate was transferred to OptiPlate 96 (Perkin-E1mer) with 100 μL/well of MicroScint-40 (Perkin-E1mer) dispensed and ^14C of CPM was measured with TOPCOUNT NXT (Perkin-E1mer).
Data was calculated by deducting the average value of CPM for blank well from the average value of CPM for each well treated. […]

C[C@H]1C(=O)NC[C@@H]1C(=O)Nc1cc(-c2cc(F)cc(OC(C)(C)C)c2)n(C(F)(F)F)n1 [Example 1, (3R,4R)-N-(5-(3-(tert-butoxy)-5-fluorophenyl)-1-(trifluoromethyl)-1H-pyrazol-3-yl)-4-methyl-5-oxopyrrolidine-3-carboxamide]
protein quantities in the urine (mg/mgCr) ([1]; 16, 30, and 69 days): lower than those of the vehicle-administered group
creatinine clearance (mL/min) [1]: significantly higher than that of the vehicle-administered group
urea nitrogen levels (mg/dL) [1]: significantly lower than those of the vehicle-administered group
GFR (mL/min/100 g B.W.) [2]: inhibited the increase of GFR
blood glucose level after the glucose load (Δ AUC to 120 minutes, % of Vehicle) [3]: significantly reduced the blood glucose level
blood glucose level after the glucose load (Δ AUC to 120 minutes, % of Vehicle) [4]: significantly reduced the blood glucose level
SGLT1 inhibitory activity ([5]; qualitative statement): confirmed to have the SGLT1 inhibitory activity

C[C@H]1C(=O)NC[C@@H]1C(=O)Nc1cc(-c2cccc(OC(F)(F)F)c2)n(-c2ccc(Cl)nn2)n1 [Example 10]
inhibition at 0.3 µM ([5]; CHO-K1, at 0.3 μM, read-out: hSGLT1 inhibition): 45%
